Where no end group is shown, it is not given here. Bounds are passed on as bounds.
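Note: T-cell clone rested overnight in 5% FBS medium, then cultured overnight with peptide titrations, MIP-1β released into supernatant measured by ELISA.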

The subject of one assay is InsB4 T-cell clone. The format is cell-based, human.
Conditions: not given
A word on the EC50: it is the concentration at which the effect is half-maximal. ALVENQFLL came in with a half-maximal effective concentration (EC50) of 2200 nM. Same read-out and setting: the figure for EMLERGLLV is 1600 nM; for FILEGILTV it is 54 nM.

As to FLIEGVLTI, the EC50 came out at 55 nM. Still for that read-out and setting: the figure for FLTEWILPL is 5800 nM; for FLVEQVLFA it is 3300 nM. The compound IITEGIMTL yielded an EC50 of 5900 nM. The compound IIVEDSLLV displayed an EC50 of 1.1 nM. Same read-out and setting: the figure for ILIEGILFF is 0.92 nM; for ILIERGLTF it is 79000 nM. Same read-out and setting: as for ILLENGYLL, the figure is 600 nM; as for IMYEGLLFV, 70 nM; as for ITIERILTI, 1800 nM.

For the compound IVLEGAMIV, the EC50 is 130 nM. Still for that read-out and setting: as for LIEERSPLI, the figure is 6100 nM. On the same count and under the same terms, as for LILERSPTA, the figure is 13000 nM; as for LILQGVLTM, 2600 nM; as for LLEENSPML, 50 nM.

LLIENFVTG yielded a 50% effective concentration (EC50) of 5600 nM.

Regarding LLIIGGLLF, the midpoint of the response, the EC50, lay at 290 nM. On the same count and under the same terms, as for LLLERMFLF, the figure is 1400 nM; as for LLLERYFLA, 66 nM. On to LLVEDLLVL, for which the EC50 was 200 nM. Consider LLVEGALTG, for which the EC50 came to 640 nM. Same read-out and setting: the figure for LLVEGAMTV is 42 nM. On to LLVENWPLL, for which the response was half-maximal at 2.4 nM (EC50). Still for that read-out and setting: the figure for LLVERQLVL is 6600 nM. Still for that read-out and setting: the figure for LMLENLLTF is 2200 nM. On to LMLERGFII, for which the EC50 worked out at 950 nM. Same read-out and setting: the figure for LMVENVPFA is 0.052 nM; for LQVEGAMSV it is 240 nM. The same measure, in the same setting: the figure for LQVENYLPI is 27 nM; for LQVIRILLA it is 2600 nM. The same measure, in the same setting: as for LTVEGIFRV, the figure is 1600 nM; as for LVLEDILLA, 1400 nM; as for MIVEGFLLL, 59 nM. MIVENVPLL had an EC50 of 0.17 nM.

Regarding MLIEGVLTV, the midpoint of the response, the EC50, lay at 10 nM.

In turn, MLIERVMST gave an EC50 of 5600 nM. MLVEEGLLV showed an EC50 of 97 nM. With MLVEGVLLA, a half-maximal response (EC50) required 55 nM. Still for that read-out and setting: as for MLVEWALVA, the figure is 54 nM; as for MLYENWLLS, 1900 nM; as for MQLENGLLL, 6.3 nM.

The same assay, now with this note: 20 top-scoring fungal peptides, Figure 8; overnight, MIP-1β ELISA; NR = no T-cell response; read-out: EC50 of peptide activation of InsB4.
Turning to `CC(C)C[C@H](NC(=O)[C@H](C)NC(=O)[C@H](CCC(=O)O)NC(=O)[C@@H](NC(=O)[C@H](CC(C)C)NC(=O)[C@@H](N)Cc1c[nH]cn1)C(C)C)C(=O)N[C@@H](Cc1ccc(O)cc1)C(=O)N[C@@H](CC(C)C)C(=O)N[C@H](C(=O)O)C(C)C` [reference compound], the 50% effective concentration (EC50) was found to be 1100 nM. On to FLLERILIV, for which the EC50 was 960 nM.

ILVERALFT [top-scoring fungal peptide]: the EC50 is over 10000 nM.

On to IMLENGPFL [top-scoring fungal peptide], for which the concentration giving a half-maximal response (EC50) was over 10000 nM. The same measure, in the same setting: the figure for IQLENSLFA is 8900 nM; for LIIEWIFFL it is 150 nM; for LIIEWYLIM it is 860 nM. On the same count and under the same terms, as for LILENYMFA, the figure is 880 nM. Still for that read-out and setting: the figure for LLVEDMLLM is 390 nM; for LQLEGQLLL it is 3900 nM; for LVVEGSLFV it is 340 nM. Turning to MIIEGFLLI, the EC50 was found to be 130 nM. On the same count and under the same terms, the figure for MLLEGMMIV is 110 nM; for MQVEWILTF it is 12000 nM.

Still in this assay, the particulars now being: overnight, MIP-1β ELISA.
As for “ILLEGILIL [bacterial protein-derived nonamer peptide, Bin 2]”, the “agonist activity on InsB4 in words (relative to index HLVEALYLV)” value is on record as “most potent”.

These data come from paper PMC7058665, “GPU-Accelerated Discovery of Pathogen-Derived Molecular Mimics of a T-Cell Insulin Epitope” (Frontiers in Immunology, 2020).
